We go through 1 compound from US20080241254A1, “PHARMACEUTICAL COMPOSITION COMPRISING ATOVAQUONE PARTICLES” (priority 2007, published 2008).

The conditions of data set [1]: cited from earlier work.
Data set [2] in a line: Particle size of atovaquone particles, light scattering (Malvern Mastersizer). It counts as physicochemical. Particulars: milled atovaquone particles before formulation. The text has this:
Conventionally known particle size analysis methods can be used suitably for determining the particle size. For example, particle size measurement can be done using light-scattering methods and turbidimetric methods, sedimentation methods, such as pipette analysis technique using an Andreassen pipette, sedimentation scales, photosedimentometers and sedimentation in a centrifugal force field, pulse methods, for example using a Coulter counter, or sorting by means of gravitational or centrifugal force.
The term “d9o value” means at least 90% of atovaquone particles have volume diameter less than specified value when measured by a light scattering method, for example, Malvern Mastersizer.
Atovaquone was air jet milled using at inlet feeder air pressure of 6 kg/cm2 and inlet miller air pressure of 8 kg/cm2 at the rate of 100 g/hour. After one cycle the contents were again milled through air jet mill for second cycle to obtain the desired particle size.

The conditions of data set [3]: single oral dose, presence of fatty food; cited from earlier work.

The structures appear in SMILES notation.

Consider `O=C1C(O)=C(C2CCC(c3ccc(Cl)cc3)CC2)C(=O)c2ccccc21` (stereo not shown) [Atovaquone, 2-[4-(4-chlorophenyl)cyclohexyl]-3-hydroxy-1,4-naphthoquinone], for which the aqueous solubility entry in data set [1] is “low aqueous solubility”. Besides, the d90 particle size in data set [2] stood at 5.34 μm. This compound also gave a d50 particle size in data set [2] (measured by Malvern) of 2.42 μm. Moreover, the “effect of fatty food on absorption” value in data set [3] is on record as “increased about threefold”.
